Data on 38 compounds can be found in patent US20170027172A1, “USE OF SUBSTITUTE OXO TETRAHYDROQUINOLINE SULFONAMIDES OR SALTS THEREOF FOR RAISING STRESS TOLERANCE OF PLANTS” (BAYER CROPSCIENCE AKTIENGESELLSCHAFT, priority 2014, published 2017).

The assay concerns the target T1, phosphatase ABI1 via the co-regulator RCAR11/PYR1 (Arabidopsis thaliana, UniProt O49686+P49597).
T1 sequence (O49686 1-191): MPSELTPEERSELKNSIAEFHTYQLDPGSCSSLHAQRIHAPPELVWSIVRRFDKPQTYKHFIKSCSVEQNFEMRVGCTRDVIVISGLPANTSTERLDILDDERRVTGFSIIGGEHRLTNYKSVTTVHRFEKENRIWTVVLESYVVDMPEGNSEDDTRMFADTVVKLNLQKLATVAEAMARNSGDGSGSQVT
T1 sequence (P49597 1-434): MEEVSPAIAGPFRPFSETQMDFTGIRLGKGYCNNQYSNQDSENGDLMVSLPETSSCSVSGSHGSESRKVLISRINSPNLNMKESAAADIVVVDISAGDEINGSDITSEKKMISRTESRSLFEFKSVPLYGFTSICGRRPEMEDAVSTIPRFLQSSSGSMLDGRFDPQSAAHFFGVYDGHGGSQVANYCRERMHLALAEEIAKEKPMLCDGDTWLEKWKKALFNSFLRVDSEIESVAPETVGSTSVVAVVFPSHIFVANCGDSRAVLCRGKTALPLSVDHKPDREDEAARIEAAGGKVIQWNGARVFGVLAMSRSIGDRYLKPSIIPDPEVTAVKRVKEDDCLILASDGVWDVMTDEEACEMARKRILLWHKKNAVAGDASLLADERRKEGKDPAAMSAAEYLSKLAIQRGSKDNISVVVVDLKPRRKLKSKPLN
As to the kind of experiment: In vitro inhibition of the phosphatase ABI1 via the co-regulator RCAR11/PYR1, MUP dephosphorylation. Details: dose or concentration left out as unconfirmed. The assay is classed as biochemical. Conditions: in a solution of DMSO and water; fluorescence at 460 nm. The source says:
Effects of the phytohormone abscisic acid (ABA) on the behavior of plants under abiotic stress and the mechanism of action of ABA are described in the literature (cf. Abrams et al., WO97/23441, Park et al. Science, 2009, 324, 1068; Grill et al. Science, 2009, 324, 1064; Tanokura et al. Biophysics, 2011, 7, 123; Schroeder et al. Plant J. 2010, 61, 290). Therefore, it is possible with the aid of a suitable in vitro test system to derive a correlation between the action of ABA and the stress response of a plant under abiotic stress. In the event of water deficiency (drought stress), plants form the phytohormone abscisic acid (ABA). This binds, along with a co-regulator (Regulatory Component of ABA-Receptor=RCAR according to Grill et al. Science, 2009, 324, 1064 or PYR/PYL according to Cutler et al. Science, 2009, 324, 1068), to a phosphatase (e.g. ABI1, a type 2C protein phosphatase, also abbreviated to PP2C) and inhibits its activity. As a result, a “downstream” kinase (e.g. SnRK2) is no longer dephosphorylated. This kinase, which is thus active, via phosphorylation of transcription factors (e.g. AREB/ABF, cf. Yoshida et al., 2010, 61, 672), switches on a genetic protection program to increase drought stress tolerance. The assay described hereinafter utilizes the inhibition of the phosphatase ABI1 via the co-regulator RCAR11/PYR1 aus Arabidopsis thaliana. For the determination of activity, the dephosphorylation of 4-methylumbelliferyl phosphate (MUP) was measured at 460 nm. The in vitro assay was conducted in Greiner 384-well PS microplates F-well, using two controls: a) 0.5% dimethyl sulfoxide (DMSO) and b) 5 μM abscisic acid (ABA). The assay described here was generally conducted with substance concentrations of the appropriate chemical test substances in a concentration range of 0.1 μM to 100 μM in a solution of DMSO and water. The substance solution thus obtained, if necessary, was stirred with esterase from porcine liver (EC 3.1.1.1) at room temperature for 3 h and centrifuged at 4000 rpm for 30 min. A total volume of 45 μl was introduced into each cavity of the microplate, having the following composition: • 1) 5 μl of substance solution, i.e. a) DMSO 5% or b) abscisic acid solution or c) the corresponding example compound of the general formula (I) dissolved in 5% DMSO. • 2) 20 μl of enzyme buffer mix, composed of a) 40% by vol. of enzyme buffer (10 mL contain equal proportions by volume of 500 mM Tris-HCl pH 8, 500 mM NaCl, 3.33 mM MnCl2, 40 mM dithiothreitol (DTT)), b) 4% by vol. of ABI1 dilution (protein stock solution was diluted so as to give, after addition, a final concentration in the assay of 0.15 μg ABI1/well), c) 4% by vol. of RCAR11 dilution (enzyme stock was diluted so as to give, on addition of the dilution to the enzyme buffer mix, a final concentration in the assay of 0.30 μg enzyme/well), d) 5% by vol. of Tween20 (1%), e) 47% by vol. H2O bi-dist. • 3) 20 μl of substrate mix, composed of a) 10% by vol. of 500 mM Tris-HCl pH8, b) 10% by vol. of 500 mM NaCl, c) 10% by vol. of 3.33 mM MnCl2, d) 5% by vol. of 25 mM MUP, 5% by vol. of Tween20 (1%), 60% by vol. of H2O bi-dist.
Enzyme buffer mix and substrate mix were made up 5 minutes prior to the addition and warmed to a temperature of 35° C. On completion of pipetting of all the solutions and on completion of mixing, the plate was incubated at 35° C. for 20 minutes. Finally, a relative fluorescence measurement was made at 35° C. with a BMG Labtech “POLARstar Optima” microplate reader using a 340/10 nm excitation filter and a 460 nm emission filter. The efficacy of the compounds of the general formula (I) is reported in the table which follows using abscisic acid […] as comparative substance (No. 37) according to the following classification: ++++ (inhibition≧90%), +++ (90%>inhibition≧70%), ++ (70%>inhibition≧50%), + (50%>inhibition≧30%). […]
On to `O=C1CCc2cc(NS(=O)(=O)Cc3ccc(C(F)(F)F)cc3)ccc2N1CC(F)F` [A1-178], for which the ABI1 inhibition entry was “++++ (inhibition≧90%)”.

Take `N#Cc1ccc(CS(=O)(=O)Nc2ccc3c(c2)CCC(=O)N3CCC(F)(F)F)cc1` [A7-181]: the ABI1 inhibition result is given as “++++ (inhibition≧90%)”.

`COC(=O)CN1C(=O)CCc2cc(NS(=O)(=O)Cc3cccc(Cl)c3)ccc21` [A50-166]: the ABI1 inhibition result is “++ (70%>inhibition≧50%)”.

For `COC(=O)CCN1C(=O)CCc2cc(NS(=O)(=O)Cc3ccccc3[N+](=O)[O-])ccc21` [A51-177], the ABI1 inhibition entry was “++ (70%>inhibition≧50%)”.

Regarding `COC(=O)CN1C(=O)CCc2cc(NS(=O)(=O)Cc3ccc(C#N)cc3)ccc21` [A50-181], the ABI1 inhibition result was “+++ (90%>inhibition≧70%)”.

Regarding `COC(=O)CCN1C(=O)CCc2cc(NS(=O)(=O)Cc3ccc(C)cc3)ccc21` [A51-152], the ABI1 inhibition result was “++++ (inhibition≧90%)”.

Take `O=C1CCc2cc(NS(=O)(=O)Cc3ccc(Cl)cc3)ccc2N1CC1CCCC1` [A22-165]: the ABI1 inhibition entry is “+++ (90%>inhibition≧70%)”.

With `O=C1CCc2cc(NS(=O)(=O)Cc3ccc([N+](=O)[O-])cc3)ccc2N1CC(F)(F)F` [A2-175], the ABI1 inhibition entry is listed as “++++ (inhibition≧90%)”.

Turning to `O=C1CCc2cc(NS(=O)(=O)Cc3cccc(Br)c3)ccc2N1CC(F)(F)F` [A2-173], the ABI1 inhibition result is “+++ (90%>inhibition≧70%)”.

Consider `O=C1CCc2cc(NS(=O)(=O)Cc3ccccc3Cl)ccc2N1CC(F)(F)F` [A2-168], for which the ABI1 inhibition result was “++ (70%>inhibition≧50%)”.

Turning to `CCc1ccc(CS(=O)(=O)Nc2ccc3c(c2)CCC(=O)N3CC2CC2)cc1` [A19-325, N-[1-(Cyclopropylmethyl)-2-oxo-1,2,3,4-tetrahydroquinolin-6-yl]-1-(4-ethylphenyl)methanesulfonamide], the ABI1 inhibition entry is recorded as “++++ (inhibition≧90%)”.

For the compound `O=C1CCc2cc(NS(=O)(=O)Cc3ccc(F)cc3)ccc2N1CC1CC1(Cl)Cl` (racemic) [A32-158], the ABI1 inhibition entry is “+ (50%>inhibition≧30%)”.

`COC(=O)CCN1C(=O)CCc2cc(NS(=O)(=O)Cc3ccccc3F)ccc21` [A51-161]: the ABI1 inhibition result was “+++ (90%>inhibition≧70%)”.

On to `O=C1CCc2cc(NS(=O)(=O)Cc3ccc(C(F)(F)F)cc3)ccc2N1CC1CCC1` [A21-178], for which the ABI1 inhibition result was “+++ (90%>inhibition≧70%)”.

`O=C1CCc2cc(NS(=O)(=O)Cc3ccc(Cl)cc3)ccc2N1CCC(F)(F)F` [A7-165]: the ABI1 inhibition entry is given as “++++ (inhibition≧90%)”.

For `CC(C#N)CN1C(=O)CCc2cc(NS(=O)(=O)Cc3ccc(Cl)cc3)ccc21` (centres unmarked) [A47-165], the ABI1 inhibition result is listed as “++++ (inhibition≧90%)”.

Turning to `N#CCCCN1C(=O)CCc2cc(NS(=O)(=O)Cc3ccc(C#N)cc3)ccc21` [A48-181], the ABI1 inhibition entry is “++++ (inhibition≧90%)”.

Turning to `COC(=O)CN1C(=O)CCc2cc(NS(=O)(=O)Cc3ccc(Br)cc3)ccc21` [A50-172], the ABI1 inhibition entry is “++++ (inhibition≧90%)”.

For the compound `CC(C)(C)c1ccc(CS(=O)(=O)Nc2ccc3c(c2)CCC(=O)N3CC2CCC2)cc1` [A21-332], the ABI1 inhibition entry is given as “++++ (inhibition≧90%)”.

Consider `O=C1CCc2cc(NS(=O)(=O)Cc3ccc(Cl)cc3)ccc2N1CC(F)F` [A1-165], for which the ABI1 inhibition entry is listed as “++++ (inhibition≧90%)”.

With `O=C1CCc2cc(NS(=O)(=O)Cc3cccc(Br)c3)ccc2N1CC(F)F` [A1-173], the ABI1 inhibition result is “++ (70%>inhibition≧50%)”.

Turning to `O=C1CCc2cc(NS(=O)(=O)Cc3cccc(F)c3)ccc2N1CC1CCC1` [A21-159], the ABI1 inhibition result is listed as “++++ (inhibition≧90%)”.

Take `Cc1ccc(CS(=O)(=O)Nc2ccc3c(c2)CCC(=O)N3CCC(F)(F)F)cc1` [A7-152]: the ABI1 inhibition result is given as “++++ (inhibition≧90%)”.

Regarding `CCc1ccc(S(=O)(=O)Nc2ccc3c(c2)CCC(=O)N3CC2CCC2)cc1` [A21-601], the ABI1 inhibition entry is “++++ (inhibition≧90%)”.

For the compound `Cc1ccc(CS(=O)(=O)Nc2ccc3c(c2)CCC(=O)N3CC2CCCC2)cc1` [A22-152], the ABI1 inhibition entry was “+++ (90%>inhibition≧70%)”.

For `O=C1CCc2cc(NS(=O)(=O)Cc3ccc(Cl)cc3)ccc2N1CC1CCC1` [A21-165], the ABI1 inhibition entry is listed as “++++ (inhibition≧90%)”.

On to `N#Cc1cccc(CS(=O)(=O)Nc2ccc3c(c2)CCC(=O)N3CCC(F)(F)F)c1` [A7-182], for which the ABI1 inhibition result is reported as “++ (70%>inhibition≧50%)”.

In the case of `O=C1CCc2cc(NS(=O)(=O)Cc3ccc([N+](=O)[O-])cc3)ccc2N1CC(F)F` [A1-175], the ABI1 inhibition entry is “+++ (90%>inhibition≧70%)”.

For the compound `COC(=O)CN1C(=O)CCc2cc(NS(=O)(=O)Cc3ccc(F)cc3)ccc21` [A50-158], the ABI1 inhibition result is given as “+++ (90%>inhibition≧70%)”.

Regarding `O=C1CCc2cc(NS(=O)(=O)Cc3ccccc3)ccc2N1CC(F)(F)F` [A2-151], the ABI1 inhibition result was “++++ (inhibition≧90%)”.

`COC(=O)CN1C(=O)CCc2cc(NS(=O)(=O)CCc3ccc(Cl)cc3)ccc21` [A50-291]: the ABI1 inhibition entry is recorded as “++ (70%>inhibition≧50%)”.

For the compound `Cc1ccc(CS(=O)(=O)Nc2ccc3c(c2)CCC(=O)N3CC2CCC2)cc1` [A21-152], the ABI1 inhibition entry was “++++ (inhibition≧90%)”.

In the case of `O=C1CCc2cc(NS(=O)(=O)Cc3ccccc3[N+](=O)[O-])ccc2N1CC(F)(F)F` [A2-177], the ABI1 inhibition result is “+++ (90%>inhibition≧70%)”.

Take `Cc1ccc(S(=O)(=O)Nc2ccc3c(c2)C2(CCC2)CC(=O)N3CC2CC2)cc1` [J3-50, 4-Methyl-N-[1′-(cyclopropylmethyl)-2′-oxo-2′,3′-dihydro-1′H-spiro[cyclobutyl-1,4′-quinolin]-6′-yl]phenylsulfonamide]: the ABI1 inhibition entry was “+ (50%>inhibition≧30%)”.

Turning to `COC(=O)CCN1C(=O)CCc2cc(NS(=O)(=O)Cc3cccc(Br)c3)ccc21` [A51-173], the ABI1 inhibition result is reported as “++ (70%>inhibition≧50%)”.

With `O=C1CCc2cc(NS(=O)(=O)Cc3ccc(C(F)(F)F)cc3)ccc2N1CC(F)(F)F` [A2-178], the ABI1 inhibition result is “++++ (inhibition≧90%)”.

For the compound `COCCN1C(=O)CCc2cc(NS(=O)(=O)Cc3cccc(Cl)c3)ccc21` [A38-166], the ABI1 inhibition entry is recorded as “+++ (90%>inhibition≧70%)”.

Regarding `COC(=O)CCN1C(=O)CCc2cc(NS(=O)(=O)Cc3ccc([N+](=O)[O-])cc3)ccc21` [A51-175], the ABI1 inhibition result was “+++ (90%>inhibition≧70%)”.
